Results as given in paper PMC4703387, “Identification of the Calmodulin-Binding Domains of Fas Death Receptor” (PLoS ONE, 2016).
Where no end group is shown, it is not given here.

Molecular target: T1, Ca^2+/CaM (Homo sapiens, UniProt P0DP23)
T1 construct: made in house
Test: Gel filtration assay of Ca^2+/CaM-peptide complexes
Type: binding
Conditions: HiLoad Superdex 75 (10/300 GL), 50 mM Tris (pH 7.0), 100 mM NaCl, 5 mM CaCl2
Protocol: The mobility of Ca^2+/CaM complexes with Fas-Pep1 and Fas-Pep2 was analyzed by a gel filtration assay. […] Protein fractions were analyzed by SDS-PAGE. A low molecular weight calibration kit (GE Healthcare) was used to determine the approximate molecular weight of complexes.
Fas-Pep2 has been expressed and purified as a fusion protein with SUMO (see Materials and Methods). Because of some technical difficulties during purification of a recombinant peptide, a synthetic Fas-Pep1 was used in this study. The solution properties of Fas-Pep1 and Fas-Pep2 and their complexes with Ca^2+/CaM were initially analyzed with size exclusion chromatography assay. Samples were run on a size exclusion column (Superdex 75) under identical buffer conditions. Sample concentrations were at ~50–100 μM. […] Ca^2+/CaM complexes with Fas-Pep1 and Fas-Pep2 prepared at 1:1 stoichiometry eluted at 11.3 and 11.2 mL, respectively (Fig 3A). […] The formation of complexes was confirmed by SDS-PAGE (Fig 3B). […] As we and others have shown previously, Ca^2+/CaM elutes at a smaller than expected volume due to its elongated dumbbell shape.[32, 42, 43]

- elution volume, free (~50–100 μM): 15.2 mL
- elution volume of complex with Ca^2+/CaM (prepared at 1:1 stoichiometry): 11.2 mL
Sequence: VQDTAEQKVQLLRNWHQLHGKKEAYDTLIKDLKKANLC [Fas-Pep2]
